Source: US20240199651A1, “ANTIBACTERIAL COMPOUNDS” (JANSSEN SCIENCES IRELAND UNLIMITED COMPANY, priority 2021, published 2024)
Where two headings read alike, the source gives them in different places.

Experiments:
[1] = Mitochondrial toxicity (Glu/Gal) assay; type: cell-based; conditions: for Score: mitotoxicity score, Glu/Gal assay; for Δ IC50, glu/IC50, gal: ratio IC50 glu / IC50 gal
From the text: The compounds of the invention/examples may have advantages associated with in vitro potency, kill kinetics (i.e. bactericidal effect) in vitro, PK properties, food effect, safety/toxicity (including liver toxicity, coagulation, 5-LO oxygenase), metabolic stability, Ames II negativity, MNT negativity, aqueous based solubility (and ability to formulate) and/or cardiovascular effect e.g. on animals (e.g. anesthetized guinea pig). Data that is generated/calculated may be obtained using standard methods/assays, for instance that are available in the literature or which may be performed by a supplier (e.g. Microsomal Stability Assay—Cyprotex, Mitochondrial toxicity (Glu/Gal) assay—Cyprotex, as well as literature CYP cocktail inhibition assays). GSH can be measured (reactive metabolites, glucuronidation) to observe if a dihydrodiol is observed by LCMS (fragmentation ions), which would correspond to a dihydroxylation on the core heterocycle.

[2] = system: Mycobacterium tuberculosis strain EH4.0 expressing green-fluorescent protein (GFP); test: microbe, parasite or virus in culture; type: cell-based; conditions: Test 1 (and/or Test 2); M. tuberculosis
[3] = Chemical stability testing (LCMS); type: physicochemical; conditions: 72 h, 30 µM
Method: • Add 3 μl of a 10 mM DMSO stock solution to 1 ml of the following solvents in a 1.5 ml HPLC vial. • DMSO (reference solution) • H2O/Acetonitril 1/1 (assay solution) • 0.1N HCl/Acetonitril 1/1 (assay solution) • Mix well, […] LCMS • Compare the chromatograms of the two assay solutions with the reference solution and report the additional peaks as degradation peaks

[4] = galactose medium (Glu/Gal mitotoxicity assay), read-out: IC50, gal
[5] = glucose medium (Glu/Gal mitotoxicity assay), read-out: IC50, glu

Row | SMILES | IC50 [1, 4] | IC50 [1, 5] | IC50 ([1]; read-out: IC50, gal) | IC50 ([1]; read-out: IC50, glu) | Score [1] | Δ IC50, glu/IC50, gal [1] | further results
1 | Cc1cnc2nc(C3CC3)c(C(=O)NCc3ccc(-c4nc5n(n4)CCN(S(=O)(=O)C(F)(F)F)C5)c(F)c3)n2c1 [Compound 97] | > 25 µM | > 25 µM |  |  |  |  | 
2 | CCc1nc2ncc(C)cn2c1C(=O)NCc1nnc(-c2nc3n(n2)CCN(S(=O)(=O)C(F)(F)F)C3)s1 [Compound 76] |  |  | > 200 µM | > 200 µM |  |  | 
3 | CCc1nc2ncc(C)cn2c1C(=O)NCc1cccc(Cc2cc3n(n2)CCN(S(=O)(=O)C(F)(F)F)C3)c1 [Compound 95] |  |  | 117 µM | > 200 µM | [x]1 | >1.7 | 
4 | CCc1nc2sc(C)cn2c1C(=O)NCc1ccc(-c2nc3n(n2)CCN(S(=O)(=O)C(F)(F)F)C3)cc1 [Compound 36] |  |  | 79.5 µM | > 100 µM | [x]0 | >1.26 | 
5 | CCc1nc2ncc(C)cn2c1C(=O)NCc1ccc(-c2nn3c(c2OC)CN(S(=O)(=O)C(F)(F)F)CC3)cc1 [Compound 88] |  |  |  |  |  |  | AC50 [2]: 0.00866 µM
6 | CCc1nc2ccc(C)cn2c1C(=O)NCc1ccc(-c2nc3n(n2)CCN(C(=O)C(F)(F)F)C3)cc1 [Compound 53] | > 200 µM | > 200 µM |  |  |  |  | 
7 | CCc1nc2ncc(C)cn2c1C(=O)NCc1ccc(-c2nc3n(n2)CCN(S(=O)(=O)N(C)C)C3)cc1 [Compound 41] | > 200 µM | > 200 µM |  |  |  |  | 
8 | CCc1nc2ccc(C)cn2c1C(=O)NCc1ccc(-c2nc3n(n2)CCN(S(=O)(=O)N2CCCC2)C3)cc1 [Compound 48] | > 200 µM | > 200 µM |  |  |  |  | 
9 | CCc1nc2ncc(C)cn2c1C(=O)NCc1ccc(C2CN(c3nc4n(n3)CCN(S(=O)(=O)C(F)(F)F)C4)C2)cc1 [Compound 58] |  |  | 58.2 µM | > 200 µM |  | >3.44 | 
10 | CC(=O)N1CCn2nc(-c3ccc(CNC(=O)c4c(C5CC5)nc5ncc(C)cn45)cc3)cc2C1 [Compound 96] | > 200 µM | > 200 µM |  |  |  |  | 
11 | CCc1nc2cc(N)c(Cl)cn2c1C(=O)NCc1ccc(-c2nc3n(n2)CCN(S(=O)(=O)C(F)(F)F)C3)c(F)c1 [Compound 14] |  |  |  |  |  |  | chemical stability, % by LCMS [3]: 100%; chemical stability, % by LCMS ([3]; pH 1.6): 100%
12 | CCc1nc2ncc(C)cn2c1C(=O)NCc1ccc(C2CCN(c3nc4n(n3)CCN(S(=O)(=O)C(F)(F)F)C4)CC2)cc1 [Compound 59] |  |  | 17.6 µM | > 200 µM | [x]3 | >11.38 | 
13 | CCc1nc2cc(C)c(Cl)cn2c1C(=O)NCc1ccc(-c2nc3n(n2)CCN(S(=O)(=O)C(F)(F)F)C3)c(F)c1 [Compound 9] |  |  | 19.9 µM | 22.9 µM | [x]1 | 1.15 | 
14 | O=C(NCc1ccc(-c2nc3n(n2)CCN(S(=O)(=O)C(F)(F)F)C3)cc1)c1c(C2CC2)nc2ncc(Cl)cn12 [Compound 103] |  |  | 38.6 µM | > 50 µM | [x]0 | >1.3 | 
15 | CCc1nc2ccc(Cl)cn2c1C(=O)NCc1ccc(-c2cn3c(n2)CN(S(=O)(=O)C(F)(F)F)CC3)cc1 [Compound 117] | > 50 µM | > 50 µM |  |  |  |  | 
16 | CCc1nc2ncc(C)cn2c1C(=O)NCc1cccc(-c2nc3n(n2)CCN(S(=O)(=O)C(F)(F)F)C3)c1 [Compound 67] |  |  | 149 µM | > 200 µM | [x]1 | >1.34 | 
17 | CCc1nc2nc(C)c(C)cn2c1C(=O)NCc1ccc(-c2nc3n(n2)CCN(S(=O)(=O)C(F)(F)F)C3)cc1 [Compound 33] |  |  | > 200 µM | 196 µM | [x]1 | <0.98 | 
18 | Cc1cnc2nc(C3CC3)c(C(=O)NCc3ccc(-c4cc5n(n4)CCN(S(=O)(=O)C(F)(F)F)C5)cc3)n2c1 [Compound 93] | > 200 µM | > 200 µM |  |  |  |  | 
19 | Cc1cnc2nc(C3CC3)c(C(=O)NCc3ccc(-c4cc5n(n4)CCN(S(C)(=O)=O)C5)cc3)n2c1 [Compound 99] | > 200 µM | > 200 µM |  |  |  |  | 
20 | Cc1ccc2nc(C)c(C(=O)NCc3ccc(-c4nc5n(n4)CCN(S(=O)(=O)C(F)(F)F)C5)cc3)n2c1 [Compound 34] |  |  | 44.2 µM | > 50 µM | [x]0 | >1.13 | 
21 | Cc1nc2sc(Cl)cn2c1C(=O)NCc1ccc(-c2nc3n(n2)CCN(S(=O)(=O)C(F)(F)F)C3)cc1 [Compound 38] |  |  | 8.68 µM | > 100 µM | [x]3 | >11.52 | 
